Values quoted from earlier work in US20190381034A1, “PHARMACEUTICAL COMPOSITION AND METHOD FOR ACUTE ON CHRONIC LIVER FAILURE AND RELATED LIVER DISEASES” (priority 2018, published 2019).

Experiments:
[1] = in vivo
[2] = laboratory test indicators, liver failure patients, oral TMZ 20 mg three times a day

Q: For COc1ccc(CN2CCNCC2)c(OC)c1OC.Cl.Cl [TMZ, 1-[2,3,4-trimethoxybenzyl] piperazine dihydrochloride], which liver toxicity (liver) is on record?
A: minimal liver toxicity

Q: What about the “30-day immortality rate of liver failure patients” value (liver failure patients; TMZ treatment group, 20 mg tablet orally three times a day, 4-week course, traditional therapeutic approach 44%) of the same molecule?
A: approximately 18%

Q: And the “90-day immortality rate of liver failure patients” value (liver failure patients; TMZ treatment group, 20 mg tablet orally three times a day, 4-week course, traditional therapeutic approach 68%)?
A: 35%

Q: And the “decrease rate of alanine aminotransferase” value (liver failure patients; [2])?
A: significantly raise the decrease rate

Q: And the “decrease rate of aspartate transaminase” value (liver failure patients; [2])?
A: significantly raise the decrease rate

Q: And the “hepatic glucose metabolism (PET-CT imaging of liver)” value (liver failure patients; one liver failure patient, after taking TMZ)?
A: remarkably improved

Q: What about the elimination half-life [1] of the same molecule?
A: approximately 6 hours
